Assay results as given in PMC10067601, “Identification of a peptide ligand for human ALDH3A1 through peptide phage display: Prediction and characterization of protein interaction sites and inhibition of ALDH3A1 enzymatic activity” (Frontiers in Molecular Biosciences, 2023).

Molecular target: T1, human recombinant ALDH3A1 (Homo sapiens, UniProt P30838)
T1 construct: 6xHis (C); made in house; host or cells: E. coli, with chaperone co-expression (pG-KJE8 plasmid)
T1 sequence (P30838 1-453): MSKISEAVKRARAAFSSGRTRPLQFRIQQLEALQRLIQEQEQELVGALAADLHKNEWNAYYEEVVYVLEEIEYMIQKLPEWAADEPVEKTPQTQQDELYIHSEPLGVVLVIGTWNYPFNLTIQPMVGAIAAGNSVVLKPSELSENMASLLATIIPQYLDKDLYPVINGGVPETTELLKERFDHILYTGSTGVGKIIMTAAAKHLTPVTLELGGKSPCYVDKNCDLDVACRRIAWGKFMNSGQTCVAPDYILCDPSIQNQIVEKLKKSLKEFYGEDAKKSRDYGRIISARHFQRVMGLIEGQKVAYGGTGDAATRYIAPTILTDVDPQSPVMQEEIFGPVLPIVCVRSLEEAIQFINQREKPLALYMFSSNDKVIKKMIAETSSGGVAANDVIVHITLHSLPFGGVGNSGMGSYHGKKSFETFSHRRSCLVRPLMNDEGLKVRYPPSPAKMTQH
Test: ALDH3A1 enzymatic assay, benzaldehyde oxidation
Assay type: biochemical
Conditions: for Enzymatic activity, % of control (Mean%): 40 μM CB29; for Enzymatic activity, % of control (Mean%) / Enzymatic Activity, AVERAGE of triplicates: mean of n = 3
Method: The ability of ALDH3A1 to oxidize benzaldehyde in the presence of P1 was estimated by monitoring the production of NADH as described earlier with minor modifications ([Voulgaridou et al., 2013]). Human recombinant ALDH3A1 was combined with P1 and diluted in Milli-Q water, at 1:1,000. The final reaction was placed in a 0.5 mL quartz cuvette containing 50 mM Tris-HCl pH 8.5, 50 mM 2-Mercaptoethanol, 1.5 mM […], 20 nM ALDH3A1, 20 μM P1, and 1 mM Benzaldehyde. The reaction was initiated by the addition of the benzaldehyde substrate and was monitored at 340 nm for 5 min using a spectrophotometer (Libra S22, Biochrom Ltd, Cambridge, United Kingdom). In the case of CB29, the final reaction contained 40 μM CB29. Enzymatic activity was calculated as dOD/dT∗molarextinctioncoeiffcient∗pathcorrection∗enzyme^′sconcentrationinfinalreaction where, dT = minutes, molar extinction coefficient = 6220 M^-1/cm, path correction = 1 cm.
All experiments were conducted in triplicates and presented as % of the control’s enzymatic activity. As a control, the final reaction contained the respective Milli-Q water volume without P1 or CB29.
At least three independent experiments were performed for each condition tested. The values are expressed as the mean ± standard deviation (SD). Statistical analysis was performed with Graph Pad Prism software (version 9.4.1) (Graph Pad Inc., La Jolla, CA, United States). For all assays, statistical differences between groups were evaluated either by Student’s t-test or ANOVA, for multiple comparisons, followed by Dunnett’s or Tukey’s test. A level of p < 0.01 was considered statistically significant.

[1] = 20 μM P1 (n = 4) or 40 μM CB29 (n = 3)

CC(=O)Nc1ccc(Nc2ccc(S(C)(=O)=O)cc2[N+](=O)[O-])cc1 [CB29, reference compound]
Enzymatic activity, % of control, AVERAGE of experiments (20 μM P1 (4 experiments) or 40 μM CB29 (3 experiments), 1 mM benzaldehyde, 20 nM ALDH3A1, pH 8.5, 340 nm, 5 min): 52.9548%
25% Percentile, % of control activity [1]: 47.24
75% Percentile, % of control activity [1]: 56.68
Lower 95% CI of mean, % of control activity [1]: 40.48
Maximum, % of control activity [1]: 56.68
Mean, % of control activity [1]: 52.95
Median, % of control activity [1]: 54.95
Minimum, % of control activity [1]: 47.24
Upper 95% CI of mean, % of control activity [1]: 65.43
Enzymatic activity, % of control (Mean%) (CB29 Exp1, 1 mM benzaldehyde, 20 nM ALDH3A1, pH 8.5, 340 nm): 56.6779%
Enzymatic activity, % of control (Mean%) (CB29 Exp2, 1 mM benzaldehyde, 20 nM ALDH3A1, pH 8.5, 340 nm): 54.9455%
Enzymatic activity, % of control (Mean%) (CB29 Exp3, 1 mM benzaldehyde, 20 nM ALDH3A1, pH 8.5, 340 nm): 47.241%
Enzymatic Activity, AVERAGE of triplicates (CB29 Exp1, 40 μM): 7.722 µmol/min/mg
Enzymatic Activity, AVERAGE of triplicates (CB29 Exp2, 40 μM): 6.9085 µmol/min/mg
Enzymatic Activity, AVERAGE of triplicates (CB29 Exp3, 40 μM): 7.406 µmol/min/mg
95,00% CI of diff, control vs. compound (Dunnett's multiple comparisons, 20 μM P1 or 40 μM CB29): 37,23 to 56,86
Mean Diff, control vs. compound (Dunnett's multiple comparisons, 20 μM P1 or 40 μM CB29, % of control activity): 47.05
